Data taken from patent US5316773A, “Particulate preparation containing a flourracil derivative and hydroxypropylmethyl-cellulose” (Otsuka Pharmaceutical Co., Ltd., priority 1990, dated 1994).

Key:
[1] = Absorption test using beagle (oral administration, EM-FU concentration in plasma); assay type: in vivo; settings: preparations corresponding to 100 mg BOF-A2 per beagle, all cases
[2] = after administration in vivo; via conversion into EM-FU and CNDP; cited from earlier work

CCOCn1cc(F)c(=O)n(C(=O)c2cccc(C(=O)Oc3nc(OC(=O)c4ccccc4)ccc3C#N)c2)c1=O [BOF-A2, 3-[3-(6-Benzoyloxy-3-cyano-2-pyridyloxycarbonyl)benzoyl]-1-ethoxymethyl-5-fluorouracil]
non-changed compound (BOF-A2) in plasma [1]: not detected | anti-cancer activity [2]: continuous and strong anti-cancer activity
